Laboratory results reported in ChEMBL document CHEMBL1201862, “PubChem BioAssay data set” (2004).
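How tested: cells in 96-well plates exposed to compound for 48 hours at five concentrations. At the GI50, growth is halved.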 Activity calls are given as the source filed them. Cut-off read from the data, not from the text of the source: active = GI50 up to about 1.1 µM and inactive = higher.

Experiments:
Assay in all cases: DTP human tumour cell line panel, 48 h
NCI/ADR-RES = tested on: NCI/ADR-RES
OVCAR-8 = tested on: OVCAR-8
UO-31 = tested on: UO-31
U-251 = tested on: U-251
UACC-257 = tested on: UACC-257
HCT-116 = tested on: HCT-116
SN12C = tested on: SN12C
SK-OV-3 = tested on: SK-OV-3
MDA-MB-231 = tested on: MDA-MB-231
HT-29 = tested on: HT-29
K562 = tested on: K562
RPMI-8226 = tested on: RPMI-8226
T47D = tested on: T47D
HL-60 = tested on: HL-60
EKVX = tested on: EKVX
NCI-H226 = tested on: NCI-H226
SK-MEL-2 = tested on: SK-MEL-2
RXF 393 = tested on: RXF 393
NCI-H23 = tested on: NCI-H23
SF-539 = tested on: SF-539

SMILES | GI50 (NCI/ADR-RES) | GI50 (OVCAR-8) | GI50 (UO-31) | GI50 (U-251) | GI50 (UACC-257) | GI50 (HCT-116) | GI50 (SN12C) | GI50 (SK-OV-3) | GI50 (MDA-MB-231) | GI50 (HT-29) | GI50 (K562) | GI50 (RPMI-8226) | GI50 (T47D) | GI50 (HL-60) | GI50 (EKVX) | GI50 (NCI-H226) | GI50 (SK-MEL-2) | GI50 (RXF 393) | GI50 (NCI-H23) | GI50 (SF-539)
O=C(O)/C=C\C(=O)Nc1ccc2c(c1)-c1ccccc1C2 | 56.1 µM (inactive) | 77.4 µM (inactive) | > 100 µM (inactive) | 56.2 µM (inactive) | 98.6 µM (inactive) | 99.3 µM (inactive) | > 100 µM (inactive) | > 100 µM (inactive) | > 100 µM (inactive) | > 100 µM (inactive) | 64.9 µM (inactive) | 42.5 µM (inactive) | 88.1 µM (inactive) | > 100 µM (inactive) | 87.9 µM (inactive) | 28.9 µM (inactive) | 38.5 µM (inactive) | > 100 µM (inactive) | 70.8 µM (inactive) | –
CCCCCCCCCCCC1NC(N)=NC(CCCO)=C1C(=O)OC (stereo not drawn) | 17.7 µM (inactive) | 2.3 µM (inactive) | 15.3 µM (inactive) | 1.67 µM (inactive) | 3.16 µM (inactive) | 1.92 µM (inactive) | 2.47 µM (inactive) | 2.33 µM (inactive) | 2.08 µM (inactive) | 1.73 µM (inactive) | 1.71 µM (inactive) | 2.32 µM (inactive) | 5.09 µM (inactive) | 1.42 µM (inactive) | 16.1 µM (inactive) | 6.3 µM (inactive) | 1.63 µM (inactive) | – | 2.08 µM (inactive) | 2.96 µM (inactive)
CC(=C\c1ccccc1)/C=C(\C#N)C(N)=O | > 10 µM (inactive) | > 10 µM (inactive) | > 10 µM (inactive) | > 10 µM (inactive) | – | – | > 10 µM (inactive) | > 10 µM (inactive) | > 10 µM (inactive) | > 10 µM (inactive) | – | – | > 10 µM (inactive) | – | > 10 µM (inactive) | > 10 µM (inactive) | > 10 µM (inactive) | > 10 µM (inactive) | – | > 10 µM (inactive)
Cn1nc(/C=C\C(=O)N2CC(CCl)c3c2cc(N)c2ccccc32)cc1/C=C/C(=O)N1CC(CCl)c2c1cc(N)c1ccccc21 (stereo not drawn) | 0.0124 µM (active) | < 0.01 µM (active) | < 0.01 µM (active) | < 0.01 µM (active) | 0.0225 µM (active) | < 0.01 µM (active) | < 0.01 µM (active) | < 0.01 µM (active) | < 0.01 µM (active) | – | < 0.01 µM (active) | – | < 0.01 µM (active) | – | 0.0215 µM (active) | < 0.01 µM (active) | < 0.01 µM (active) | < 0.01 µM (active) | < 0.01 µM (active) | < 0.01 µM (active)
CN1C(=O)c2ccccc2NC(=O)C12O[C@@H]2c1ccccc1 (stereo partly drawn) | > 100 µM (inactive) | > 100 µM (inactive) | > 100 µM (inactive) | > 100 µM (inactive) | > 100 µM (inactive) | > 100 µM (inactive) | > 100 µM (inactive) | – | 67.6 µM (inactive) | > 100 µM (inactive) | – | > 100 µM (inactive) | > 100 µM (inactive) | > 100 µM (inactive) | > 100 µM (inactive) | – | > 100 µM (inactive) | – | > 100 µM (inactive) | > 100 µM (inactive)
Cc1cc(=O)oc2c3c(ccc12)OC(c1ccc(Br)cc1)CC3=O (stereo not drawn) | 12.5 µM (inactive) | 5.86 µM (inactive) | 10.3 µM (inactive) | 5.9 µM (inactive) | 13.1 µM (inactive) | 10.3 µM (inactive) | 5.42 µM (inactive) | 8.15 µM (inactive) | 7.35 µM (inactive) | 14.7 µM (inactive) | 2.83 µM (inactive) | 4.04 µM (inactive) | 0.177 µM (active) | – | 15.1 µM (inactive) | 18 µM (inactive) | 11.3 µM (inactive) | – | 12.1 µM (inactive) | 9.98 µM (inactive)
N#Cc1ncc(C(Cl)Cl)nc1Cl | 2.14 µM (inactive) | 2.15 µM (inactive) | 1.78 µM (inactive) | 1.97 µM (inactive) | 1.53 µM (inactive) | 1.67 µM (inactive) | 1.74 µM (inactive) | 3.78 µM (inactive) | 1.74 µM (inactive) | 1.74 µM (inactive) | 1.33 µM (inactive) | – | 1.76 µM (inactive) | 0.748 µM (active) | 1.75 µM (inactive) | 9.27 µM (inactive) | 1.91 µM (inactive) | 1.75 µM (inactive) | 2.12 µM (inactive) | 1.73 µM (inactive)
CCOC(=O)Nc1nn(C)/c(=N/Cc2ccccc2)s1 | – | – | 33.4 µM (inactive) | > 100 µM (inactive) | > 100 µM (inactive) | > 100 µM (inactive) | > 100 µM (inactive) | > 100 µM (inactive) | > 100 µM (inactive) | – | > 100 µM (inactive) | > 100 µM (inactive) | > 100 µM (inactive) | > 100 µM (inactive) | > 100 µM (inactive) | – | > 100 µM (inactive) | > 100 µM (inactive) | – | > 100 µM (inactive)
CC1COC(c2cn[nH]c2C(N)=O)C1O (stereo not drawn) | > 100 µM (inactive) | > 100 µM (inactive) | > 100 µM (inactive) | > 100 µM (inactive) | > 100 µM (inactive) | > 100 µM (inactive) | > 100 µM (inactive) | > 100 µM (inactive) | > 100 µM (inactive) | > 100 µM (inactive) | > 100 µM (inactive) | > 100 µM (inactive) | > 100 µM (inactive) | > 100 µM (inactive) | > 100 µM (inactive) | > 100 µM (inactive) | > 100 µM (inactive) | – | > 100 µM (inactive) | > 100 µM (inactive)
CN(C)CCc1ccnc2nc(-c3ccc4ccccc4c3)cn12 | 26.2 µM (inactive) | 26.9 µM (inactive) | 52.6 µM (inactive) | 38.2 µM (inactive) | 36.3 µM (inactive) | 31.7 µM (inactive) | 26.8 µM (inactive) | 38.5 µM (inactive) | 28.8 µM (inactive) | 17.8 µM (inactive) | 79.8 µM (inactive) | > 100 µM (inactive) | 34.9 µM (inactive) | 36.9 µM (inactive) | 38 µM (inactive) | 27.8 µM (inactive) | > 100 µM (inactive) | 30.9 µM (inactive) | 20.4 µM (inactive) | –
O=C1CS(=O)(=O)C(c2cccc(Oc3ccccc3)c2)N1c1ccc(Cl)cc1 (stereo not drawn) | 18.9 µM (inactive) | 18.8 µM (inactive) | 28.6 µM (inactive) | 19.1 µM (inactive) | 14.8 µM (inactive) | 7.91 µM (inactive) | 22.1 µM (inactive) | 49 µM (inactive) | 31.4 µM (inactive) | 25 µM (inactive) | 14.5 µM (inactive) | – | 10.9 µM (inactive) | 24.2 µM (inactive) | 11.5 µM (inactive) | 21.9 µM (inactive) | 15.2 µM (inactive) | 18.6 µM (inactive) | 21.1 µM (inactive) | 19.5 µM (inactive)
COc1cccc2c1C(=O)c1c(O)c3c(c(O)c1C2=O)C[C@@](O)(C(C)=O)C[C@@H]3OC1OC(C)C(O)C(N)C1Br (stereo partly drawn) | – | 0.0557 µM (active) | 0.0953 µM (active) | 0.0295 µM (active) | 0.155 µM (active) | 0.00792 µM (active) | 0.0281 µM (active) | 0.045 µM (active) | 0.233 µM (active) | 0.152 µM (active) | 0.0495 µM (active) | 0.0156 µM (active) | 0.0585 µM (active) | 0.00971 µM (active) | 0.805 µM (active) | 0.0165 µM (active) | 0.267 µM (active) | 0.213 µM (active) | 0.027 µM (active) | 0.0583 µM (active)
CC(C)n1c(=O)c2nn3c(=O)n(C(C)C)c(=O)c3nn2c1=O | > 100 µM (inactive) | > 100 µM (inactive) | – | – | > 100 µM (inactive) | > 100 µM (inactive) | > 100 µM (inactive) | > 100 µM (inactive) | > 100 µM (inactive) | > 100 µM (inactive) | – | – | > 100 µM (inactive) | > 100 µM (inactive) | > 100 µM (inactive) | > 100 µM (inactive) | > 100 µM (inactive) | > 100 µM (inactive) | > 100 µM (inactive) | > 100 µM (inactive)
c1ccc2c(-c3cnc(-c4c[nH]c5ccccc45)cn3)c[nH]c2c1 | 74.5 µM (inactive) | 39.4 µM (inactive) | 39.5 µM (inactive) | 49.7 µM (inactive) | 43.4 µM (inactive) | 5.2 µM (inactive) | 31.4 µM (inactive) | 49.1 µM (inactive) | 91 µM (inactive) | – | 18.8 µM (inactive) | 45.3 µM (inactive) | 66.5 µM (inactive) | – | 73.6 µM (inactive) | – | 70.3 µM (inactive) | 26.7 µM (inactive) | 61.8 µM (inactive) | 23.6 µM (inactive)
O=C1C=C2CC[C@H]3[C@@H]4CC[C@H](Oc5c6ccccc6nc6ccccc56)[C@H]4CC[C@@H]3[C@H]2CC1 | 20.4 µM (inactive) | 22.9 µM (inactive) | – | 41.9 µM (inactive) | 35.6 µM (inactive) | 37.1 µM (inactive) | 55.3 µM (inactive) | 60.8 µM (inactive) | 41.3 µM (inactive) | 36.7 µM (inactive) | 32.7 µM (inactive) | – | 43.1 µM (inactive) | 12.2 µM (inactive) | 4.47 µM (inactive) | 60.7 µM (inactive) | 40 µM (inactive) | 26.2 µM (inactive) | 27.6 µM (inactive) | 52.2 µM (inactive)
Cc1[nH]n(-c2nc3c(c(=O)[nH]2)CCCC3)c(=O)c1CCO | > 100 µM (inactive) | > 100 µM (inactive) | > 100 µM (inactive) | > 100 µM (inactive) | > 100 µM (inactive) | > 100 µM (inactive) | > 100 µM (inactive) | > 100 µM (inactive) | > 100 µM (inactive) | > 100 µM (inactive) | > 100 µM (inactive) | – | > 100 µM (inactive) | > 100 µM (inactive) | > 100 µM (inactive) | > 100 µM (inactive) | > 100 µM (inactive) | > 100 µM (inactive) | > 100 µM (inactive) | > 100 µM (inactive)
